According to ChEMBL document CHEMBL5137065, “Recent Advances with KDM4 Inhibitors and Potential Applications” (J Med Chem, 2022):
One block for each molecule: values may come before it.

Legend:
[1] = Permeability of compound in human Caco-2 cells; type: ADME, cell-based; settings: read-out: permeability
[2] = target: T1, Lysine-specific demethylase 2A (Homo sapiens, UniProt Q9Y2K7); test: Inhibition of KDM2A in human MIA PaCa-2 cells assessed as induction of H3K36me2 measured by immunofluorescence assay; type: cell-based
T1 sequence (Q9Y2K7 whole entry): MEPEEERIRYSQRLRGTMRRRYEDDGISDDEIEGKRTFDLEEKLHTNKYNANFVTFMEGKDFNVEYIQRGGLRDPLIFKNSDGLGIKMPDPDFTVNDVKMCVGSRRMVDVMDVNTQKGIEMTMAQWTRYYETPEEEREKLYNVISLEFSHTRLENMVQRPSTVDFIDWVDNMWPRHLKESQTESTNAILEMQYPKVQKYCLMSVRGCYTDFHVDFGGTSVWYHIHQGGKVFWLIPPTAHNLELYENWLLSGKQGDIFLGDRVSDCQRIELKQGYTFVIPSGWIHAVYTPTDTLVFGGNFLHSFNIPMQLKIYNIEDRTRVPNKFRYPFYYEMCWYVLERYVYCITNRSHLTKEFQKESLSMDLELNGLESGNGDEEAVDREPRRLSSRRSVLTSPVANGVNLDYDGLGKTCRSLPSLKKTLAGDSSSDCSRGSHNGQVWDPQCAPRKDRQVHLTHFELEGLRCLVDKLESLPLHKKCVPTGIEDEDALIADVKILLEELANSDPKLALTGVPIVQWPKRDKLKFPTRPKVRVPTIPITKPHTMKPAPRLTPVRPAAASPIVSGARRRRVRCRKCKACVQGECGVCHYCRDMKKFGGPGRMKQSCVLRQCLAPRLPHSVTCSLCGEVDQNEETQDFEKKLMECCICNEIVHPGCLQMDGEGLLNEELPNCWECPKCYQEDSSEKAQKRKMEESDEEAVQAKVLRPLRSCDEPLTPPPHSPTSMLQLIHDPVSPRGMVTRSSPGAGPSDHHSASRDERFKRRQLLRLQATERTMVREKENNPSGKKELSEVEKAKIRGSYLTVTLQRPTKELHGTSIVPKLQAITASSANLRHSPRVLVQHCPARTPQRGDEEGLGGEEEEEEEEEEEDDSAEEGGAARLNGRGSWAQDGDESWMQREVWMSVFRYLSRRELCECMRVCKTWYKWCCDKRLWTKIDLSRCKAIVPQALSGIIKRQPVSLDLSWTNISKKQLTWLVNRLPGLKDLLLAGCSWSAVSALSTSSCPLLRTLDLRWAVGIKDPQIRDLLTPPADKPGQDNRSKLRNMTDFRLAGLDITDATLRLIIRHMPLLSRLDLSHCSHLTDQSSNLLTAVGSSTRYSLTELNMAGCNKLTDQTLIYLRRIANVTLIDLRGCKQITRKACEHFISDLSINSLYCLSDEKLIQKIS

[3] = target: T2, Lysine-specific demethylase 4A (Homo sapiens, UniProt O75164)
T2 sequence (O75164 whole entry): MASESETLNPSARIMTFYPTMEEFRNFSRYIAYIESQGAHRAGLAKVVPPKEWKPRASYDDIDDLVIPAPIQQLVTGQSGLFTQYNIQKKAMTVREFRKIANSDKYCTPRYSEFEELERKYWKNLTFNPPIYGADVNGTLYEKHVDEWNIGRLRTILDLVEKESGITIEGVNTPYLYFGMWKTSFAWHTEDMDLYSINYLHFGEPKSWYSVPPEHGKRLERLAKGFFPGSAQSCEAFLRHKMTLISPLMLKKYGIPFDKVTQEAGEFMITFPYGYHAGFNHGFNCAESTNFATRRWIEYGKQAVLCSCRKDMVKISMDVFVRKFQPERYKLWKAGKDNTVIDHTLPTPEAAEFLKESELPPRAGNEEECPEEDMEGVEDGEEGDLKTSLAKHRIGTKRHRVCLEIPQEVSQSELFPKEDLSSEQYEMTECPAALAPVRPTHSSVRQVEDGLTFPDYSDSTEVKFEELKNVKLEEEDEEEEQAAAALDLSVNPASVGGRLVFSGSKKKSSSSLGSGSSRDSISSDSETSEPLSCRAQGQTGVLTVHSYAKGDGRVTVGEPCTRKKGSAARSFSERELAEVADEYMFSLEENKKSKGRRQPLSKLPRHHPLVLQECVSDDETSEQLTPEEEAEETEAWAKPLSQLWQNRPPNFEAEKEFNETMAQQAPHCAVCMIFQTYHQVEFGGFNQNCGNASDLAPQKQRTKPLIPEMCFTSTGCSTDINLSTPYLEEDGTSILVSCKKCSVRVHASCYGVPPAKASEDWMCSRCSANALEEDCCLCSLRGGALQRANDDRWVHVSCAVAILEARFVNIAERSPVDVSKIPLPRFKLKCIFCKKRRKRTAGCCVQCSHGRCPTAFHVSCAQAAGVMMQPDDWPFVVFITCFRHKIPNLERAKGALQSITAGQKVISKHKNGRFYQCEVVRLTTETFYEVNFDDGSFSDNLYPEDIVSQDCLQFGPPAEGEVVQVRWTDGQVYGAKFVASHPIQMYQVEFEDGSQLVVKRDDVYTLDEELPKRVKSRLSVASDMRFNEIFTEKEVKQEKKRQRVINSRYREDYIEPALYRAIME

[4] = target: T2, Lysine-specific demethylase 4A; remark: listed apart in the source
[5] = target: T3, Lysine-specific demethylase 4C (Homo sapiens, UniProt Q9H3R0); test: Inhibition of human KDM4C measured by AlphaLISA assay
T3 sequence (Q9H3R0 whole entry): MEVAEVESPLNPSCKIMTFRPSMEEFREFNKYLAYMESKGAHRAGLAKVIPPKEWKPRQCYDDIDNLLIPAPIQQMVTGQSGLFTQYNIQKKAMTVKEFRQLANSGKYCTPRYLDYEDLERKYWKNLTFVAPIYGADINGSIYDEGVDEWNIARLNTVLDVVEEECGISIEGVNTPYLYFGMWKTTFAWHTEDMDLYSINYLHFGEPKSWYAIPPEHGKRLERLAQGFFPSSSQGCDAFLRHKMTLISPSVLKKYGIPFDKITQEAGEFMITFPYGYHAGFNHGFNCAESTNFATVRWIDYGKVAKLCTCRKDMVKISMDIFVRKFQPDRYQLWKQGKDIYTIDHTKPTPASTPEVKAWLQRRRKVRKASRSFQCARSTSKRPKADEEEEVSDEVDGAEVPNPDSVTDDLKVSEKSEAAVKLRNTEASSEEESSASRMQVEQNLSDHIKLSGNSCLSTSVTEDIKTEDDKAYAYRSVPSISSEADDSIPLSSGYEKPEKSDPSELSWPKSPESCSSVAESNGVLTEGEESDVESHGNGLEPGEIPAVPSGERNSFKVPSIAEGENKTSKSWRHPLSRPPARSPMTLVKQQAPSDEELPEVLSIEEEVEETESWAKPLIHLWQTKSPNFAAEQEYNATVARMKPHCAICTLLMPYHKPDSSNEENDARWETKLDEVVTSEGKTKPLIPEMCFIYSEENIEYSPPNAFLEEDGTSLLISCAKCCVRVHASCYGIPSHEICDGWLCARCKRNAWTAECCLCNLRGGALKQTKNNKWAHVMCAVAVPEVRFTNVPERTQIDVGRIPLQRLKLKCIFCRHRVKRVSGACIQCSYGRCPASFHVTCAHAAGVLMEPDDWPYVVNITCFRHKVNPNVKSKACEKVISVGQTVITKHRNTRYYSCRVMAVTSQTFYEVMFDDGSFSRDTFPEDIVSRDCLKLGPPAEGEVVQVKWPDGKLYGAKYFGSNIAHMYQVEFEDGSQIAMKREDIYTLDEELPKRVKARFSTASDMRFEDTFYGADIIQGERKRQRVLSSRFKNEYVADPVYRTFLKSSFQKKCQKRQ

[6] = target: T4, Lysine-specific demethylase 4D (Homo sapiens, UniProt Q6B0I6); test: Inhibition of human KDM4D measured by AlphaLISA assay
T4 sequence (Q6B0I6 whole entry): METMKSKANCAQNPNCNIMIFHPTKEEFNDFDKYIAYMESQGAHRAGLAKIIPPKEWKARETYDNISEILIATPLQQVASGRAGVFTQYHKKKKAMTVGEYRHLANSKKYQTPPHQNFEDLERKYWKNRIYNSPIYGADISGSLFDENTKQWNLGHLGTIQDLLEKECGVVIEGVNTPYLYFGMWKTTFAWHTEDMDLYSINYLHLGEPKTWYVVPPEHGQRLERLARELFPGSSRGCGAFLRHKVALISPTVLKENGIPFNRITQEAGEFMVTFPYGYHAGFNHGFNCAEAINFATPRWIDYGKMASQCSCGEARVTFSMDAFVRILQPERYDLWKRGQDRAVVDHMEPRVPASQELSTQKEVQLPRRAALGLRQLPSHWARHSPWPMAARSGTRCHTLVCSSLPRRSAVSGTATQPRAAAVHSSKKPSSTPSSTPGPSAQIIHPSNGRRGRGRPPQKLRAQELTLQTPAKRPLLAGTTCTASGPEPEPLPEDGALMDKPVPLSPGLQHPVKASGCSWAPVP

[7] = target: T5, Lysine-specific demethylase 4B (Homo sapiens, UniProt O94953); test: Inhibition of human KDM4B measured by AlphaLISA assay
T5 sequence (O94953 whole entry): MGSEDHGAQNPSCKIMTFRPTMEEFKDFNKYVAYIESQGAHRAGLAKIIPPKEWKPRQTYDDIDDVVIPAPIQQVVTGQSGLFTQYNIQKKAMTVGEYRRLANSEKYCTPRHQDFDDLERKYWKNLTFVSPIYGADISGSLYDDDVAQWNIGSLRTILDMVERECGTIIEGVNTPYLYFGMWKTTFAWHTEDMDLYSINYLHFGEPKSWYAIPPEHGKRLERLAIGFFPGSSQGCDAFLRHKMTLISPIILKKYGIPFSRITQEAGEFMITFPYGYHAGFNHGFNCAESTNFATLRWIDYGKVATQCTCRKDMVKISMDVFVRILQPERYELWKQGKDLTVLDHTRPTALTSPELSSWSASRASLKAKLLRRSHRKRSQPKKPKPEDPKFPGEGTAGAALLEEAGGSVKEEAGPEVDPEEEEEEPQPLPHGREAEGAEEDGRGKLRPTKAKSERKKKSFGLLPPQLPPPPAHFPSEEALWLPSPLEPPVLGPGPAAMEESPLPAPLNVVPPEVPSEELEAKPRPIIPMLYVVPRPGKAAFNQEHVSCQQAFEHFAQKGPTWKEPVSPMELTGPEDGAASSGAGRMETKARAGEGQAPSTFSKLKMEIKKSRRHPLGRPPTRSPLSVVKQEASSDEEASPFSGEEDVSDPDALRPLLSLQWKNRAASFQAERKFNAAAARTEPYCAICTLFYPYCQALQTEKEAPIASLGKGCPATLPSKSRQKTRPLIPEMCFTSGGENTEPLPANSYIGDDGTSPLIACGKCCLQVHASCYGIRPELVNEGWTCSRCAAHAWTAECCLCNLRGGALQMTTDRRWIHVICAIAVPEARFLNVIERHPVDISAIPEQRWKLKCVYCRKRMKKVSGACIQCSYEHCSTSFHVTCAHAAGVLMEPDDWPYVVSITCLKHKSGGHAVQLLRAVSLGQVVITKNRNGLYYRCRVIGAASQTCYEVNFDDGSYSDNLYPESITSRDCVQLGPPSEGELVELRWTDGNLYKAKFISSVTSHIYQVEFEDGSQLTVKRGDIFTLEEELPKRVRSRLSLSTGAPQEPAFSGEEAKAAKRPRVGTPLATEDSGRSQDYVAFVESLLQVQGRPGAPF

[8] = target: T2, Lysine-specific demethylase 4A; test: Inhibition of binding of H3K4Me3 to KDM4A tudor domain (unknown origin) measured by NanoBRET-based cellular proximity assay

Papp [1]: 12.5 ×10⁻⁶ cm/s
Compound: CN(C)CCCNC(=O)c1ccc(-c2cc(O)c3ncccc3c2)cc1

IC50 [2]: 0.28 µM
IC50 [3]: 0.28 µM
Ki [4]: 0.42 µM
Compound: CN(C)c1ccc(/C=C/c2cc[n+](Cc3ccc(F)cc3)cc2)cc1

IC50 [5]: 24.4 µM
IC50 [6]: 24.4 µM
IC50 [7]: 24.4 µM
Compound: O=C(O)c1cc(O)c(=O)c2c(O)c(O)cc(-c3ccccc3)c2c1

EC50 [8]: 105 µM
Compound: CN(C)C[C@H]1[C@H]2CC[C@](c3ccccc3)(C2)[C@H]1O
